Data on five compounds can be found in PMC2713499 (Biochemistry, 2009).

This data set has as its system PC-3-Bcl-2 prostate cancer cells. The data set is described as follows: In vitro cytotoxicity assay. Type of data set: cell-based, Human. The note with it: for inhibition of proliferation and viability compared to control / cytotoxic effects: 96 h; for inhibition of proliferation and viability compared to control / % surviving fraction compared to mock: MTT, PC-3-Bcl-2; for % surviving fraction compared to mock: 96 hours; for cytotoxic effects: up to 100,000 nM, PC-3-Bcl-2, in words.

As to `CC(=O)/N=c1/sc(S(N)(=O)=O)nn1C` [MZM, N-(3-methyl-5-sulfamoyl-3H-1,3,4-thiadiazol-2-ylidene)], the “inhibition of proliferation and viability compared to control” value (“inhibition … compared to control” below) (0.01 mM) came to 29%. For the same compound, under “0.1 mM”, the “inhibition … compared to control” value worked out at 32%; the “% surviving fraction compared to mock” value stood at 68%.

As to `CCOc1ccc2nc(S(N)(=O)=O)sc2c1` [EZM, 6-ethoxybenzothiazole-2-sulfonamide], the cytotoxic effects result is given as “no cytotoxic effects”.

On to `NS(=O)(=O)c1nnc(-c2ccccc2Cl)s1` [CHL, 5-[o-chlorophenyl]-1,3,4-thiadiazole-2-sulfonamide], for which, where the note is “0.1 mM”, the “inhibition … compared to control” value is 57%; the “% surviving fraction compared to mock” value is recorded as 43%.

For the compound `CC(=O)Nc1nnc(S(N)(=O)=O)s1` [AZM, N-(5-(aminosulfonyl)-1,3,4-thiadiazol-2-yl)-acetamide], the cytotoxic effects result is “no cytotoxic effects”.

With `NS(=O)(=O)c1nnc(NS(=O)(=O)c2ccccc2)s1` [BZM, 1,3,4-Thiadiazole-2-sulfonamide, 5-((phenylsulfonyl)amino)], the cytotoxic effects result is reported as “no cytotoxic effects”.
